Assay results published in US8410302B2, “Methoxyimino compounds and fungicide composition comprising same” (Kyung Nong Corporation, priority 2007, dated 2013).

Tests used:
[1] = tested on: Pyricularia oryzae Carvara KA301; assay: whole plant or invertebrate; assay type: in vivo; details: for pest or weed control at 2 ppm / pest or weed control at 10 ppm / pest or weed control at 50 ppm / pest or weed control at 100 ppm: Pyricularia oryzae, read-out: RCB control value (C.V.); for RCB control value (C.V.): rice blast
[2] = tested on: Erysiphae graminis; assay: Fungicidal activity against barley powdery mildew (BPM) disease, control value; assay type: in vivo; details: barley powdery mildew; for pest or weed control at 2 ppm / pest or weed control at 10 ppm / pest or weed control at 50 ppm / pest or weed control at 100 ppm: Hordeum vulgare, 168 h, read-out: BPM control value (C.V.); for pest or weed control at 100 ppm / BPM control value (C.V.): 100 ppm
[3] = tested on: Botrytis cinerae; assay: Fungicidal activity against cucumber gray mold rot (CGM) disease, control value; assay type: in vivo; details: 100 ppm, cucumber gray mold rot; for pest or weed control at 100 ppm: Botrytis, read-out: CGM control value (C.V.)
Method: Botrytis cinerae, which was isolated from cucumber infected thereby, was inoculated on a potato agar medium (PEC) and cultured under a 12L/12D cycle at 25° C. for 15 days to form spore. The spores were scraped, filtered through a gauze and then suspended in Potato Dextrose broth at a concentration of 1×10^6 spore/ml. The spore suspension was sprayed on a cucumber plant having one leaf. The cucumber plant was held in a humidified room at 20° C. for 3 days. L.A. on a leaf was measured to calculate a C.V.

[4] = tested on: Phytophthora infestans; assay: whole plant or invertebrate; assay type: in vivo; details: for pest or weed control at 2 ppm / pest or weed control at 10 ppm / pest or weed control at 50 ppm / pest or weed control at 100 ppm: Phytophthora infestans, in Solanum lycopersicum, read-out: TLB control value (C.V.); for TLB control value (C.V.): tomato late blight
[5] = tested on: Rhizoctonia solani AG-1; assay: Fungicidal activity against rice sheath blight (RSB) disease, control value; details: for pest or weed control at 100 ppm / pest or weed control at 2 ppm / pest or weed control at 10 ppm / pest or weed control at 50 ppm: Rhizoctonia solani, AG1, in Oryza sativa, read-out: RSB control value (C.V.); for RSB control value (C.V.): 100 ppm, rice sheath blight
[6] = tested on: Puccinia recondita; assay: Fungicidal activity against wheat leaf rust (WLR) disease, control value; assay type: in vivo; details: wheat leaf rust; for pest or weed control at 2 ppm / pest or weed control at 10 ppm / pest or weed control at 50 ppm / pest or weed control at 100 ppm: read-out: WLR control value (C.V.); for pest or weed control at 100 ppm / WLR control value (C.V.): 100 ppm

Structure (SMILES)	pest or weed control at 2 ppm [1]	pest or weed control at 10 ppm [1]	pest or weed control at 50 ppm [1]	pest or weed control at 100 ppm [1]	pest or weed control at 2 ppm [2]	pest or weed control at 10 ppm [2]	pest or weed control at 50 ppm [2]	pest or weed control at 100 ppm [2]	pest or weed control at 100 ppm [3]	pest or weed control at 2 ppm [4]	pest or weed control at 10 ppm [4]	pest or weed control at 50 ppm [4]	pest or weed control at 100 ppm [4]	pest or weed control at 100 ppm [5]	pest or weed control at 2 ppm [6]	pest or weed control at 10 ppm [6]	pest or weed control at 50 ppm [6]	pest or weed control at 100 ppm [6]	also measured
CNC(=O)/C(=N/OC)c1ccccc1COc1ccc(C=C(Br)Br)cc1 [Example 8, (E)-2-(2-((4-(2,2-dibromovinyl)phenoxy)methyl)phenyl)-2-methoxyimino-N-methylacetamide]	90%	97%	100%	100%	99%	100%	100%	100%	7%	98%	100%	100%	100%	32%	90%	90%	98%	100%	
CO/N=C(/C(=O)OC)c1ccccc1COc1ccc(C=C(F)F)cc1 [Example 9, methyl-(E)-2-(2-((4-(2,2-difluorovinyl)phenoxy)methyl)phenyl)-2-methoxyiminoacetate]	100%	100%	100%	100%	15%	60%	93%	100%	50%	100%	100%	100%	100%	10%	100%	100%	100%	100%	
CNC(=O)/C(=N/OC)c1ccccc1COc1ccc(C=C(F)F)cc1 [Example 10, (E)-2-(2-((4-(2,2-difluorovinyl)phenoxy)methyl)phenyl)-2-methoxyimino-N-methylacetamide]	100%	100%	100%	100%			60%	98%	50%	100%	100%	100%	100%	45%	100%	100%	100%	100%	
CO/N=C(/C(=O)OC)c1ccccc1COc1cccc(C=C(F)Cl)c1 [Example 11, methyl-(2E)-2-(2-((3-(2-chloro-2-fluorovinyl)phenoxy)methyl)phenyl)-2-methoxyiminoacetate]			70%	95%			60%	90%	43%				60%	30%		40%	90%	100%	
CNC(=O)/C(=N/OC)c1ccccc1COc1cccc(C=C(F)Cl)c1 [Example 12, (2E)-2-(2-((3-(2-chloro-2-difluorovinyl)phenoxy)methyl)phenyl)-2-methoxyimino-N-methylacetamide]																			RCB control value (C.V.) ([1]; 50 ppm): 90%; RCB control value (C.V.) ([1]; 100 ppm): 97%; BPM control value (C.V.) [2]: 80%; CGM control value (C.V.) [3]: 40%; TLB control value (C.V.) ([4]; 50 ppm): 55%; TLB control value (C.V.) ([4]; 100 ppm): 93%; RSB control value (C.V.) [5]: 15%; WLR control value (C.V.) [6]: 82%
CO/N=C(/C(=O)OC)c1ccccc1COc1ccc(C=C(F)Cl)cc1 [Example 13, methyl-(2E)-2-(2-((4-(2-chloro-2-fluorovinyl)phenoxy)methyl)phenyl)-2-methoxyiminoacetate]			70%	95%				75%	0%				60%	67%			40%	90%	
CNC(=O)/C(=N/OC)c1ccccc1COc1ccc(C=C(F)Cl)cc1 [Example 14, (2E)-2-(2-((4-(2-chloro-2-difluorovinyl)phenoxy)methyl)phenyl)-2-methoxyimino-N-methylacetamide]																			RCB control value (C.V.) ([1]; 50 ppm): 90%; RCB control value (C.V.) ([1]; 100 ppm): 95%; BPM control value (C.V.) [2]: 60%; CGM control value (C.V.) [3]: 40%; TLB control value (C.V.) ([4]; 50 ppm): 35%; TLB control value (C.V.) ([4]; 100 ppm): 98%; RSB control value (C.V.) [5]: 15%; WLR control value (C.V.) [6]: 72%
CO/N=C(/C(=O)OC)c1ccccc1COc1cccc(C=C(Cl)Br)c1 [Example 15, methyl-(2E)-2-(2-((3-(2-bromo-2-chlorovinyl)phenoxy)methyl)phenyl)-2-methoxyiminoacetate]	70%	100%	100%	100%	15%	60%	93%	95%	50%		10%	90%	100%	10%	100%	100%	100%	100%	
CNC(=O)/C(=N/OC)c1ccccc1COc1cccc(C=C(Cl)Br)c1 [Example 16, (2E)-2-(2-((3-(2-bromo-2-chlorovinyl)phenoxy)methyl)phenyl)-2-methoxyimino-N-methylacetamide]	100%	100%	100%	100%	100%	100%	100%	100%	65%	93%	95%	100%	100%	100%	100%	100%	100%	100%	pest or weed control at 2 ppm [5]: 95%; pest or weed control at 10 ppm [5]: 98%; pest or weed control at 50 ppm [5]: 100%
CO/N=C(/C(=O)OC)c1ccccc1COc1ccc(C=C(Cl)Br)cc1 [Example 17, methyl-(2E)-2-(2-((4-(2-bromo-2-chlorovinyl)phenoxy)methyl)phenyl)-2-methoxyiminoacetate]	70%	100%	100%	100%	35%	90%	93%	95%	50%		10%	90%	100%	90%	100%	100%	100%	100%	
CNC(=O)/C(=N/OC)c1ccccc1COc1ccc(C=C(Cl)Br)cc1 [Example 18, (2E)-2-(2-((4-(2-bromo-2-chlorovinyl)phenoxy)methyl)phenyl)-2-methoxyimino-N-methylacetamide]	100%	100%	100%	100%	95%	98%	100%	100%	45%	30%	80%	100%	100%	100%	100%	100%	100%	100%	pest or weed control at 2 ppm [5]: 90%; pest or weed control at 10 ppm [5]: 98%; pest or weed control at 50 ppm [5]: 100%
